Source: patent publication US12358885B2, “Substituted n-propylamine fused heterocyclic mescaline derivatives” (Enveric Biosciences Canada Inc., priority 2022, dated 2025)
Where two headings read alike, the source gives them in different places.

Key:
5-HT1A receptor [1] = molecular target: T1, 5-HT1A receptor (Homo sapiens, UniProt P08908); assay: 5-HT1A receptor radioligand competition assay (SPA, 8-hydroxy-DPAT [3H]); assay type: binding; settings: 0.5 nM hot 8-hydroxy-DPAT, membranes containing 5-HT1A
T1 construct: purchased Perkin Elmer 6110501400UA
T1 sequence (P08908 1-422): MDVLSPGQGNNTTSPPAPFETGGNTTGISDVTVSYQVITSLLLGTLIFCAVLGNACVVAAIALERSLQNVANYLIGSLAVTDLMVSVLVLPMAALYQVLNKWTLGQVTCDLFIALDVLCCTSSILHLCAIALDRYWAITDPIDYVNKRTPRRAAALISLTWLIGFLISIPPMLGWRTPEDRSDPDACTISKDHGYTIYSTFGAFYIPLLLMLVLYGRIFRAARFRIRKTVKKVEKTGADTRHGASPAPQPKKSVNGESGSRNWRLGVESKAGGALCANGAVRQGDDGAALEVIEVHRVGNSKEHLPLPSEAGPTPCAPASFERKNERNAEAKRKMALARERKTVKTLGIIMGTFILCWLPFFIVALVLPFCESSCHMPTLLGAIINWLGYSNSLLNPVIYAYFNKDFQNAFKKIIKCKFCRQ

alpha2A receptor = molecular target: T2, alpha2A receptor (Homo sapiens, UniProt P08913); assay: Eurofins Cerep competition binding assay at alpha2A receptor; settings: 10 μM test ligand; [3H]RX 821002; recombinant receptor in CHO cells
T2 construct: host or cells: CHO cells (membrane preparation)
T2 sequence (P08913 1-465): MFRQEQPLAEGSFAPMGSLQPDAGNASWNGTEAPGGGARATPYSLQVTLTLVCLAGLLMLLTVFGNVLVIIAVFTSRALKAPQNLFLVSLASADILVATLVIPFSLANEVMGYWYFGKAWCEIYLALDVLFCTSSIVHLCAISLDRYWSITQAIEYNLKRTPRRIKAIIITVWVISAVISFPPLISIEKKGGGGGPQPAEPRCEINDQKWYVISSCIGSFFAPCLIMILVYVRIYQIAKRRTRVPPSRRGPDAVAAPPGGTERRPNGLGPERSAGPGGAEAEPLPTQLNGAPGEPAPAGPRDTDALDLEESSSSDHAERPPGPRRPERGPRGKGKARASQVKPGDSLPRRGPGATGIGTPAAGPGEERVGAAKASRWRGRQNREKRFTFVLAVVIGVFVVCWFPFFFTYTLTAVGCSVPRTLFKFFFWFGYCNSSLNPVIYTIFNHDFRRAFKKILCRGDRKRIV

5-HT2B receptor = molecular target: T3, 5-HT2B receptor (Homo sapiens, UniProt P41595); assay: Eurofins Cerep competition binding assay at 5-HT2B receptor; settings: 10 μM test ligand, [3H]mesulergine, recombinant receptor in CHO cells; for inhibition at 10 µM: read-out: HT2B, percent of control-specific binding
T3 construct: host or cells: CHO cells (membrane preparation)
T3 sequence (P41595 whole entry): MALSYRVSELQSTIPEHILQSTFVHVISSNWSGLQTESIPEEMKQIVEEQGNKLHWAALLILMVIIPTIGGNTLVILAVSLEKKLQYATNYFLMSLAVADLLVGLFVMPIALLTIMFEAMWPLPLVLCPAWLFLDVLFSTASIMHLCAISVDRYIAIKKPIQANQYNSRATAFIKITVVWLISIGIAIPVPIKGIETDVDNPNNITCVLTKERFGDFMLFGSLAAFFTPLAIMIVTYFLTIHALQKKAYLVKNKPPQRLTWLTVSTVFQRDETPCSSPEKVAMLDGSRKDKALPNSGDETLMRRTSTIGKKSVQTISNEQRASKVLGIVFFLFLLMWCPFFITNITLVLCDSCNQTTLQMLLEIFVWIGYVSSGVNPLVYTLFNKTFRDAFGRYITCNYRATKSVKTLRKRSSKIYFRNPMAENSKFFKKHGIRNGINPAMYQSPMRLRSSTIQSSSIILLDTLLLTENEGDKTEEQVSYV

[2] = molecular target: T4, dopamine transporter (DAT) (Homo sapiens, UniProt Q01959); assay: Eurofins Cerep competition binding assay at dopamine transporter; settings: for inhibition at 10 µM: read-out: DAT, percent of control-specific binding; for DAT, percent of control-specific binding: 10 μM test ligand, [3H]BTCP, recombinant transporter in CHO cells
T4 construct: host or cells: CHO cells (membrane preparation)
T4 sequence (Q01959 whole entry): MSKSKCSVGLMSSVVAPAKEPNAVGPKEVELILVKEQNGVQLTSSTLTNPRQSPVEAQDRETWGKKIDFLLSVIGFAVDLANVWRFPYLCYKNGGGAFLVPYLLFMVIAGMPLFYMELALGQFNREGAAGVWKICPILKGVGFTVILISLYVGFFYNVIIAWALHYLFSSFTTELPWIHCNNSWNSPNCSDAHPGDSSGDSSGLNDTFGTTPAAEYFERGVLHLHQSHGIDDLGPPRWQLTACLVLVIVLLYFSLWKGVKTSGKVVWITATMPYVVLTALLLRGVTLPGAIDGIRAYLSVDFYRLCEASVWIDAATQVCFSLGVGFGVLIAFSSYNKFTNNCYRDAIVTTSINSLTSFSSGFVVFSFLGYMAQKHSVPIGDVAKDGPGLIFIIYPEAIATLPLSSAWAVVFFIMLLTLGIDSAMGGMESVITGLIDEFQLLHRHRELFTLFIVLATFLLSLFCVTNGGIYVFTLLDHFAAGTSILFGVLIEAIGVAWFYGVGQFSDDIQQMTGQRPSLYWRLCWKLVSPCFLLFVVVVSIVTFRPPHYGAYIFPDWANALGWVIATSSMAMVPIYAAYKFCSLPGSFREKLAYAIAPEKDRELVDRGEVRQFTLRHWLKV

5-HT2A receptor [3] = molecular target: T5, 5-HT2A receptor (Homo sapiens, UniProt P28223); assay: biochemical; assay type: binding; settings: for inhibition at 10 µM: read-out: HT2A, percent of control-specific binding
T5 construct: host or cells: HEK-293 cells (membrane preparation)
T5 sequence (P28223 whole entry): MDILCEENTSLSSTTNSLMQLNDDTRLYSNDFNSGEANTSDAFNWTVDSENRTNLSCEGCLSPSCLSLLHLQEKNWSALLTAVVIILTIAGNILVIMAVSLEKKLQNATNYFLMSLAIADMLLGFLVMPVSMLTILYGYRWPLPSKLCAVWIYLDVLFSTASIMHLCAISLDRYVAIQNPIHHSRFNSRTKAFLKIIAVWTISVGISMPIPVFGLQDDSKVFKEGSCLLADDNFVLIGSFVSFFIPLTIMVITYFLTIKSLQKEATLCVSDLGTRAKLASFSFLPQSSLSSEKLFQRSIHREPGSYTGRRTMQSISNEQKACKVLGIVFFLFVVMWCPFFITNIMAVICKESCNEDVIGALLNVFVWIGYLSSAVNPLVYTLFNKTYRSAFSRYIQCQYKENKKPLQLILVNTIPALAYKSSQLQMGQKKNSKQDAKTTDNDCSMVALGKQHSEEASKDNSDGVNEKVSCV

[4] = molecular target: T6, serotonin transporter (SERT) (Homo sapiens, UniProt P31645); assay: biochemical; assay type: binding; settings: for inhibition at 10 µM: read-out: SERT, percent of control-specific binding; for SERT, percent of control-specific binding: 10 µM
T6 construct: host or cells: CHO cells (membrane preparation)
T6 sequence (P31645 whole entry): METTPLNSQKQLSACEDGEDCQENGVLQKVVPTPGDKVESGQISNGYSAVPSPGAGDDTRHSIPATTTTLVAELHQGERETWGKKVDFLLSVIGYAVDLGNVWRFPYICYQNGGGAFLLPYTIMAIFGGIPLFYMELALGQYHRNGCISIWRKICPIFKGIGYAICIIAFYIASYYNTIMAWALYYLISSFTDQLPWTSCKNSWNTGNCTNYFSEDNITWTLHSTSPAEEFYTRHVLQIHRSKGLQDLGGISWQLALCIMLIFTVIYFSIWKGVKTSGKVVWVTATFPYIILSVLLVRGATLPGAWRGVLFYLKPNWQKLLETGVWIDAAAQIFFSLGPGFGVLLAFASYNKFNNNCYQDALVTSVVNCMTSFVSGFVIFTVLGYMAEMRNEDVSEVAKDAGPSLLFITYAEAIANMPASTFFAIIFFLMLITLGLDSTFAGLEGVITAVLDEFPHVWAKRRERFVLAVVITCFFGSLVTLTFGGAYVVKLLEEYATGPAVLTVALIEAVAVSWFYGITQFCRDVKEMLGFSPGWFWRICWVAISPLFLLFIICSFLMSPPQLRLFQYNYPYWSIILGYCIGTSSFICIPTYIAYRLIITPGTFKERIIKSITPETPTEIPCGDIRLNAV

5-HT2C receptor = molecular target: T7, 5-HT2C receptor (Homo sapiens, UniProt P28335); assay: Eurofins Cerep competition binding assay at 5-HT2C receptor; settings: 10 μM test ligand, [125I](±)DOI, recombinant receptor in HEK-293 cells; for inhibition at 10 µM: read-out: HT2C, percent of control-specific binding
T7 construct: host or cells: HEK-293 cells (membrane preparation)
T7 sequence (P28335 33-458): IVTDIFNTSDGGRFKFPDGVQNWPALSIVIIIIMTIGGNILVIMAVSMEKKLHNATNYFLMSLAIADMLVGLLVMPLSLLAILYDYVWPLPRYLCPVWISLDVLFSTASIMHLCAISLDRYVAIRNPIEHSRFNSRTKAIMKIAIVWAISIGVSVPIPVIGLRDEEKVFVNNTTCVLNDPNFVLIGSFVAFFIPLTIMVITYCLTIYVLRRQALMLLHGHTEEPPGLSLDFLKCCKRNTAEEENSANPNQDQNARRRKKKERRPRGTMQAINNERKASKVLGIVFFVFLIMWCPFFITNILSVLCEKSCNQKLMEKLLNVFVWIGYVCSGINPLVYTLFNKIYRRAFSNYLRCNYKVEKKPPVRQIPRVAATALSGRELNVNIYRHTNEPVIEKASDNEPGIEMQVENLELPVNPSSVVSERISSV

5-HT1A receptor [5] = molecular target: T1, 5-HT1A receptor; assay: Eurofins Cerep competition binding assay at 5-HT1A receptor; settings: 10 μM test ligand, [3H]8-OH-DPAT, recombinant receptor in HEK-293 cells; for inhibition at 10 µM: read-out: HT1A, percent of control-specific binding
[6] = molecular target: T8, norepinephrine transporter (NET) (Homo sapiens, UniProt P23975); assay: Eurofins Cerep competition binding assay at norepinephrine transporter; settings: for inhibition at 10 µM: read-out: NET, percent of control-specific binding; for NET, percent of control-specific binding: 10 μM test ligand, [3H]nisoxetine, recombinant transporter in CHO cells
T8 construct: host or cells: CHO cells (membrane preparation)
T8 sequence (P23975 whole entry): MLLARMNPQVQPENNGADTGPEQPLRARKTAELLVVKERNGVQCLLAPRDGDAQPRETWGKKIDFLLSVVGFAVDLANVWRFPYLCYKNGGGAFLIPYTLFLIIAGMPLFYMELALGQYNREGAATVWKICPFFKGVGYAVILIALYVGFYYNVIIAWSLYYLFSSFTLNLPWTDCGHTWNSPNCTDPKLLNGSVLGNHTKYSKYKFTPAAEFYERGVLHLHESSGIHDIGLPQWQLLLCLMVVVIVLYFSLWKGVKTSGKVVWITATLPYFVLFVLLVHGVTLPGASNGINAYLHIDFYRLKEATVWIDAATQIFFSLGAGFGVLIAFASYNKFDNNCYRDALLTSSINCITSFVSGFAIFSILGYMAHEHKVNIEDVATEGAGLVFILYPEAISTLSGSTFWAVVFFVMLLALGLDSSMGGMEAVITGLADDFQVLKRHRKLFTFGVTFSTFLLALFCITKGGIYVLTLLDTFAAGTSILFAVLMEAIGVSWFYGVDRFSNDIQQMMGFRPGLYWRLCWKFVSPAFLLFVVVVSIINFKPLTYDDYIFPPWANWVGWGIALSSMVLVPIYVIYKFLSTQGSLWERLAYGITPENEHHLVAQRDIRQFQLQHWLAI

D3 receptor = molecular target: T9, D3 receptor (Homo sapiens, UniProt P35462); assay: Eurofins Cerep competition binding assay at D3 receptor; settings: 10 μM test ligand, [3H]methylspiperone, recombinant receptor in CHO cells; for inhibition at 10 µM: read-out: D3, percent of control-specific binding
T9 construct: host or cells: CHO cells (membrane preparation)
T9 sequence (P35462 whole entry): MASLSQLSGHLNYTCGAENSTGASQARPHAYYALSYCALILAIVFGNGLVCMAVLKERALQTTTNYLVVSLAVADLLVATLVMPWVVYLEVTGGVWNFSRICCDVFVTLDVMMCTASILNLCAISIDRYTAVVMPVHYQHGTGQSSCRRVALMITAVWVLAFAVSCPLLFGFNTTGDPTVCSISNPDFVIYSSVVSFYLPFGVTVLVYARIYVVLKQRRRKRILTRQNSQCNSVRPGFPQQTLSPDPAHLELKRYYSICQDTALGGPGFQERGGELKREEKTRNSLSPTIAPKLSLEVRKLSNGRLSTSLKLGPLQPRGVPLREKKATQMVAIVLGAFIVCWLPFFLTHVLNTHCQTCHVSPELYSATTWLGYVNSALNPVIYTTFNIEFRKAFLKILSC

MT1 receptor = molecular target: T10, MT1 receptor (Homo sapiens, UniProt P48039); assay: Eurofins Cerep competition binding assay at MT1 receptor; settings: for inhibition at 10 µM: read-out: MT1, percent of control-specific binding; for MT1, percent of control-specific binding: 10 μM test ligand, [125I]2-iodomelatonin, recombinant receptor in CHO cells
T10 construct: host or cells: CHO cells (membrane preparation)
T10 sequence (P48039 whole entry): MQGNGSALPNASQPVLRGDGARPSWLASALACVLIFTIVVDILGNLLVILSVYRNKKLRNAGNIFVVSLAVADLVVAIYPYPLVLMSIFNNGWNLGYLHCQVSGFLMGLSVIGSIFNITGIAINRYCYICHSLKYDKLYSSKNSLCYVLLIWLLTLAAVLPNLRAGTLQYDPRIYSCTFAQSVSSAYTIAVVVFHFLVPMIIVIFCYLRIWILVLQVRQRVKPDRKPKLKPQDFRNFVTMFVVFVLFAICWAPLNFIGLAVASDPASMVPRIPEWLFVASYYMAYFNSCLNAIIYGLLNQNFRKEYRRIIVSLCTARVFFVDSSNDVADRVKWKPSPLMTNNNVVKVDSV

5-HT7 receptor = molecular target: T11, 5-HT7 receptor (Homo sapiens, UniProt P34969); assay: Eurofins Cerep competition binding assay at 5-HT7 receptor; settings: 10 μM test ligand, [3H]LSD, recombinant receptor in HEK-293 cells; for inhibition at 10 µM: read-out: HT7, percent of control-specific binding
T11 construct: host or cells: HEK-293 cells (membrane preparation)
T11 sequence (P34969 whole entry): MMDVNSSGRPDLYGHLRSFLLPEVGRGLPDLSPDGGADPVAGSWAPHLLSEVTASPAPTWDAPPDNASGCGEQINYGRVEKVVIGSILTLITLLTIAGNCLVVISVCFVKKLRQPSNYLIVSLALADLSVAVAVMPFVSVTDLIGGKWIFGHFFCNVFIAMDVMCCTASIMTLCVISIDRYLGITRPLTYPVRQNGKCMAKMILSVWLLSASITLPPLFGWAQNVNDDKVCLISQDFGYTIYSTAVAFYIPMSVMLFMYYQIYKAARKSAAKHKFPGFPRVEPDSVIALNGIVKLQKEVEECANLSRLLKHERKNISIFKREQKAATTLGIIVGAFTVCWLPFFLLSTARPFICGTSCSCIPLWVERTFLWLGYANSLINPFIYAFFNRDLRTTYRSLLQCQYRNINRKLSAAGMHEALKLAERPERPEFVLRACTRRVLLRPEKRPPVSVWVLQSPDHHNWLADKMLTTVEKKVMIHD

5-HT2A receptor [7] = molecular target: T5, 5-HT2A receptor; assay: biochemical; assay type: binding
5-HT1A receptor [8] = molecular target: T1, 5-HT1A receptor; assay: Functional 5-HT1A receptor cAMP assay in CHO-K1/5-HT1A/Gα15 cells; assay type: cell-based
[9] = 10 μM test molecule, [125I](±)DOI, recombinant receptor in HEK-293 cells
[10] = 1 nM [3H]ketanserin, membranes containing 5-HT2A, SPA

C/C(=C\c1ccc2c(c1)OCO2)CN1CCCC1 [B(II)]
Ki (5-HT1A receptor [1]): 824 µM
α-2A, percent of control-specific binding (alpha2A receptor): 75%
inhibition at 10 µM (5-HT2B receptor): 87%
inhibition at 10 µM [2]: 69%
inhibition at 10 µM (5-HT2A receptor [3]; [9]): 53%
inhibition at 10 µM [4]: 95%
inhibition at 10 µM (5-HT2C receptor): 45%
inhibition at 10 µM (5-HT1A receptor [5]): 79%
inhibition at 10 µM [6]: 43%
inhibition at 10 µM (D3 receptor): 55%
inhibition at 10 µM (MT1 receptor): 20%
inhibition at 10 µM (5-HT7 receptor): 68%
Ki (5-HT2A receptor [7]; [10]): 7 µM
EC50 (5-HT1A receptor [8]): 40.1 µM

CCN(CC)C/C=C/c1ccc2c(c1)OCO2 [D(I)]
α-2A, percent of control-specific binding (alpha2A receptor): 34%
inhibition at 10 µM (5-HT2B receptor): 58%
inhibition at 10 µM [2]: 39%
inhibition at 10 µM (5-HT2A receptor [3]; [9]): 32%
inhibition at 10 µM [4]: 70%
inhibition at 10 µM (5-HT2C receptor): 33%
inhibition at 10 µM (5-HT1A receptor [5]): 49%
inhibition at 10 µM [6]: 17%
inhibition at 10 µM (D3 receptor): 21%
inhibition at 10 µM (MT1 receptor): 10%
inhibition at 10 µM (5-HT7 receptor): 18%
Ki (5-HT2A receptor [7]; [10]): 21 µM
EC50 (5-HT1A receptor [8]): > 1000 µM

CNC(C)Cc1ccc2c(c1)OCO2 (stereo not drawn) [MDMA, reference compound]
Ki (5-HT1A receptor [1]): 11 µM
α-2A, percent of control-specific binding (alpha2A receptor): 27%
HT2B, percent of control-specific binding (5-HT2B receptor): 85%
DAT, percent of control-specific binding [2]: 28%
HT2A, percent of control-specific binding (5-HT2A receptor [3]; 10 µM): 74%
SERT, percent of control-specific binding [4]: 46%
HT2C, percent of control-specific binding (5-HT2C receptor): 96%
HT1A, percent of control-specific binding (5-HT1A receptor [5]): 68%
NET, percent of control-specific binding [6]: 3%
D3, percent of control-specific binding (D3 receptor): 18%
MT1, percent of control-specific binding (MT1 receptor): 1%
HT7, percent of control-specific binding (5-HT7 receptor): 58%
Ki (5-HT2A receptor [7]): 39.9 µM
EC50 (5-HT1A receptor [8]; reduction of cAMP in cells stimulated with 4 μM forskolin, CHO-K1/5-HT1A/Gα15, read-out: 5-HT1A, EC50): > 1000 µM

CCOc1c(OC)cc(CCN)cc1OC [escaline]
Ki (5-HT1A receptor [1]): 12.4 µM
α-2A, percent of control-specific binding (alpha2A receptor): 45%
HT2B, percent of control-specific binding (5-HT2B receptor): 81%
DAT, percent of control-specific binding [2]: 0%
HT2A, percent of control-specific binding (5-HT2A receptor [3]; [9]): 84%
SERT, percent of control-specific binding [4]: 0%
HT2C, percent of control-specific binding (5-HT2C receptor): 95%
HT1A, percent of control-specific binding (5-HT1A receptor [5]): 44%
NET, percent of control-specific binding [6]: 6%
D3, percent of control-specific binding (D3 receptor): 0%
MT1, percent of control-specific binding (MT1 receptor): 0%
HT7, percent of control-specific binding (5-HT7 receptor): 16%
Ki (5-HT2A receptor [7]; [10]): 61 µM
